Data published in US20240350447A1, “DELIVERY METHODS FOR TREATING BRAIN AND CENTRAL NERVOUS SYSTEM DISEASES” (JENIVISION INC., priority 2021, published 2024).

Key:
[1] = Baseline endogenous levels of DHA, DHA-EE and JV-DE1; type: in vivo; conditions: undosed Bama minipigs
Description: Endogenous levels were measured in the plasma, cerebrospinal fluid, ocular tissues (retina, optic nerve, ocular muscles), and brain. The endogenous levels DHA are not attributable to NIODP administration of DHA, DHA-EE, or JV-DE1. The baseline data collected in Table 4 was taken from the same lot of pigs, from the same vendor, as the information collected in Tables 5-7.

[2] = Biodistribution of JV-DE1 after periorbital skin (NIODP) application to one eye; type: in vivo, Cynomolgus monkeys; conditions: 165.4 μg to OD via NIODP; for OS/OD retina ratio of JV-DE1: undosed/dosed retina
Description: An experiment was performed to determine the biodisposition of 4,5-dihydro-N-[4-[[4-(1-methylethoxy) phenyl]methyl] phenyl]-1H-imadazol-2-amine (JV-DE1) following topical application to the periorbital skin that surrounds the anterior portion of the globe was performed.
165.4 μg of JV-DE1, a synthesized chemical compound, was applied to the right eye (OD) of Cynomolgus monkeys via NIODP. The monkeys were restrained from rubbing their eyes for 2 hours post dose and closely monitored by experimenter(s) to prevent cross-contamination of the untreated eye, yet JV-DE1 was quickly found in the undosed upper eyelid (733.4 ng/g), retina (5.2 ng/g) and Vitreous humor (1.03 ng/mL) as early as 0.5-hour post dose. Throughout the 3, 6, and 24-hour post dose points, low levels of JV-DE1 was detected in the retina at 5.5 ˜ 45.5 ng/g of the dosed eye, and 1.4 ˜ 6.3 ng/g of the undosed eye. The ratio of JV-DE1 in undoseD retina vs. the dosed retina was below 25.5% at all post dose time points tested.

[3] = JV-DE1 in cornea and retina after single eye drop administration; type: in vivo, New Zealand Rabbits; conditions: 120 μg/eye eye drops to the right eye
Excerpt: NIODP may be more efficient than topical eye drops for corneal delivery to treat corneal disorders, such as dry disease. […] Accordingly, NIODP may be used to deliver other compounds (such as DHA) to the cornea to treat corneal diseases, such as dry eye.

[4] = JV-DE1 distribution after single periorbital skin administration; type: in vivo, Bama minipigs
Description: In this example, 158.45 μg of 4,5-dihydro-N-[4-[[4-(1-methylethoxy) phenyl]methyl] phenyl]-1H-imadazol-2-amine (JV-DE1) was applied to the periorbital skin of a right eye of a Bama minipig. […] 1.37 ng/g of tissue and 1.35 ng/g of tissue of JV-DE1 was measured in the left and right halves of the brain, respectively. The average amount of JV-DE1 present in the brain 3 hours post-dosage was 1.36 ng/g.
Given that the average Bama pig brain weighs around 60 g, the amount of JV-DE1 delivered to the brain can be estimated to be […]. Therefore, 0.051% of the 158.45 μg of JV-DE1 administered to the periorbital skin was delivered to the brain, […] than the deliverability of DHA via NIODP. As a comparison, only about 0.025% of DHA that is orally administered is delivered to the brain or CNS.

[5] = 3 h, JV-DE1 158.45 μg to periorbital skin of right eye

CC(C)Oc1ccc(Cc2ccc(NC3=NCCN3)cc2)cc1 [JV-DE1, 4,5-dihydro-N-[4-[[4-(1-methylethoxy)phenyl]methyl]phenyl]-1H-imadazol-2-amine]
Baseline endogenous concentration in brain [1]: BLQ
Baseline endogenous concentration in cerebrospinal fluid [1]: BLQ
Baseline endogenous concentration in eye tissue homogenate including (Retina, optic nerve, ocular muscle) [1]: BLQ
Baseline endogenous concentration in plasma [1]: BLQ
JV-DE1 in plasma ([2]; 0 h post dose): BLQ
JV-DE1 in plasma ([2]; 0.5 h post dose): 0.131 ng/mL
JV-DE1 in plasma ([2]; 3 h post dose): 0.21 ng/mL
JV-DE1 in plasma ([2]; 6 h post dose): 0.26 ng/mL
JV-DE1 in plasma ([2]; 24 h post dose): BLQ
JV-DE1 in cornea ([2]; OD (dosed eye), 0.5 h): 9299.3 ng/g
JV-DE1 in retina ([2]; OD (dosed eye), 0.5 h): 39.6 ng/g
JV-DE1 in upper eyelid ([2]; OD (dosed eye), 0.5 h): 26535.4 ng/g
JV-DE1 in vitreous humor ([2]; OD (dosed eye), 0.5 h): 15.2 ng/mL
Retina/Upper eyelid ratio of JV-DE1 ([2]; OD (dosed eye), 0.5 h): 0.1%
JV-DE1 in cornea ([2]; OD (dosed eye), 3 h): 16688.7 ng/g
JV-DE1 in retina ([2]; OD (dosed eye), 3 h): 27.9 ng/g
JV-DE1 in upper eyelid ([2]; OD (dosed eye), 3 h): 32454.7 ng/g
JV-DE1 in vitreous humor ([2]; OD (dosed eye), 3 h): 7.79 ng/mL
Retina/Upper eyelid ratio of JV-DE1 ([2]; OD (dosed eye), 3 h): 0.1%
JV-DE1 in cornea ([2]; OD (dosed eye), 6 h): 23929.5 ng/g
JV-DE1 in retina ([2]; OD (dosed eye), 6 h): 45.5 ng/g
JV-DE1 in upper eyelid ([2]; OD (dosed eye), 6 h): 7945.6 ng/g
JV-DE1 in vitreous humor ([2]; OD (dosed eye), 6 h): 3.9 ng/mL
Retina/Upper eyelid ratio of JV-DE1 ([2]; OD (dosed eye), 6 h): 0.6%
JV-DE1 in cornea ([2]; OD (dosed eye), 24 h): 1621.3 ng/g
JV-DE1 in retina ([2]; OD (dosed eye), 24 h): 5.5 ng/g
JV-DE1 in upper eyelid ([2]; OD (dosed eye), 24 h): 11597.8 ng/g
JV-DE1 in vitreous humor ([2]; OD (dosed eye), 24 h): 18.97 ng/mL
Retina/Upper eyelid ratio of JV-DE1 ([2]; OD (dosed eye), 24 h): 0.0%
JV-DE1 in cornea ([2]; OS (undosed eye), 0.5 h): 0 ng/g
JV-DE1 in retina ([2]; OS (undosed eye), 0.5 h): 5.2 ng/g
JV-DE1 in upper eyelid ([2]; OS (undosed eye), 0.5 h): 733.4 ng/g
JV-DE1 in vitreous humor ([2]; OS (undosed eye), 0.5 h): 1.03 ng/mL
Retina/Upper eyelid ratio of JV-DE1 ([2]; OS (undosed eye), 0.5 h): 0.7%
JV-DE1 in cornea ([2]; OS (undosed eye), 3 h): 0 ng/g
JV-DE1 in retina ([2]; OS (undosed eye), 3 h): 6.3 ng/g
JV-DE1 in upper eyelid ([2]; OS (undosed eye), 3 h): 1637 ng/g
JV-DE1 in vitreous humor ([2]; OS (undosed eye), 3 h): 1.85 ng/mL
Retina/Upper eyelid ratio of JV-DE1 ([2]; OS (undosed eye), 3 h): 0.4%
JV-DE1 in cornea ([2]; OS (undosed eye), 6 h): 0 ng/g
JV-DE1 in retina ([2]; OS (undosed eye), 6 h): 4.8 ng/g
JV-DE1 in upper eyelid ([2]; OS (undosed eye), 6 h): 378.2 ng/g
JV-DE1 in vitreous humor ([2]; OS (undosed eye), 6 h): 0.57 ng/mL
Retina/Upper eyelid ratio of JV-DE1 ([2]; OS (undosed eye), 6 h): 1.3%
JV-DE1 in cornea ([2]; OS (undosed eye), 24 h): 0 ng/g
JV-DE1 in retina ([2]; OS (undosed eye), 24 h): 1.4 ng/g
JV-DE1 in upper eyelid ([2]; OS (undosed eye), 24 h): 46.3 ng/g
JV-DE1 in vitreous humor ([2]; OS (undosed eye), 24 h): 0 ng/mL
Retina/Upper eyelid ratio of JV-DE1 ([2]; OS (undosed eye), 24 h): 3.0%
Ratio of JV-DE1 in undosed retina vs. dosed retina ([2]; all post dose time points tested): below 25.5%
OS/OD retina ratio of JV-DE1 ([2]; 0.5 h): 13.1%
OS/OD retina ratio of JV-DE1 ([2]; 3 h): 22.6%
OS/OD retina ratio of JV-DE1 ([2]; 6 h): 10.5%
OS/OD retina ratio of JV-DE1 ([2]; 24 h): 25.5%
JV-DE1 in cornea ([3]; OD (dosed eye), 0.5 h): 12124.85 ng/g
JV-DE1 in retina ([3]; OD (dosed eye), 0.5 h): 92.03 ng/g
JV-DE1 in cornea ([3]; OD (dosed eye), 2 h): 5952.6 ng/g
JV-DE1 in retina ([3]; OD (dosed eye), 2 h): 49.13 ng/g
JV-DE1 in cornea ([3]; OD (dosed eye), 6 h): 5125.52 ng/g
JV-DE1 in retina ([3]; OD (dosed eye), 6 h): 58.87 ng/g
JV-DE1 in cornea ([3]; OD (dosed eye), 24 h): 542.19 ng/g
JV-DE1 in retina ([3]; OD (dosed eye), 24 h): 6.82 ng/g
JV-DE1 in cornea ([3]; OS (undosed eye), 0.5 h): 78.35 ng/g
JV-DE1 in retina ([3]; OS (undosed eye), 0.5 h): 7.35 ng/g
JV-DE1 in cornea ([3]; OS (undosed eye), 2 h): 28.92 ng/g
JV-DE1 in retina ([3]; OS (undosed eye), 2 h): 3.38 ng/g
JV-DE1 in cornea ([3]; OS (undosed eye), 6 h): 67.82 ng/g
JV-DE1 in retina ([3]; OS (undosed eye), 6 h): 1.42 ng/g
JV-DE1 in cornea ([3]; OS (undosed eye), 24 h): 11.03 ng/g
JV-DE1 in retina ([3]; OS (undosed eye), 24 h): BLQ
Drug Concentration in Plasma ([4]; 0 h, JV-DE1 158.45 μg to periorbital skin of right eye): BLQ
Drug Concentration in Plasma ([4]; 1 h, JV-DE1 158.45 μg to periorbital skin of right eye): BLQ
Percentage of administered dose delivered to the brain ([4]; 3 h, JV-DE1 158.45 μg periorbital, whole brain estimate): 0.051%
% of administered dose: Cerebrospinal fluid [4, 5]: 0%
% of administered dose: brain-left [4, 5]: 0.0518%
% of administered dose: brain-right [4, 5]: 0.0513%
% of administered dose: inferior rectus muscle-left [4, 5]: 0.0061%
% of administered dose: inferior rectus muscle-right [4, 5]: 0.0170%
% of administered dose: lateral rectus muscle-left [4, 5]: 0.0063%
% of administered dose: lateral rectus muscle-right [4, 5]: 0.0175%
% of administered dose: medial rectus muscle-left [4, 5]: 0.0071%
% of administered dose: medial rectus muscle-right [4, 5]: 0.0260%
% of administered dose: optic nerve-left [4, 5]: 0.0006%
% of administered dose: optic nerve-right [4, 5]: 0.0047%
% of administered dose: retina-left [4, 5]: 0.0002%
% of administered dose: retina-right [4, 5]: 0.0003%
% of administered dose: superior rectus muscle-left [4, 5]: 0.0140%
% of administered dose: superior rectus muscle-right [4, 5]: 0.0237%
Average JV-DE1 present in the brain [4, 5]: 1.36 ng/g
Drug Concentration in Plasma [4, 5]: BLQ
Drug Concentration in Tissue: Cerebrospinal fluid [4, 5]: BLQ
Drug Concentration in Tissue: brain-left [4, 5]: 1.37 ng/g
Drug Concentration in Tissue: brain-right [4, 5]: 1.35 ng/g
Drug Concentration in Tissue: inferior rectus muscle-left [4, 5]: 57.27 ng/g
Drug Concentration in Tissue: inferior rectus muscle-right [4, 5]: 58.71 ng/g
Drug Concentration in Tissue: lateral rectus muscle-left [4, 5]: 53.65 ng/g
Drug Concentration in Tissue: lateral rectus muscle-right [4, 5]: 43.50 ng/g
Drug Concentration in Tissue: medial rectus muscle-left [4, 5]: 43.67 ng/g
Drug Concentration in Tissue: medial rectus muscle-right [4, 5]: 65.54 ng/g
Drug Concentration in Tissue: optic nerve-left [4, 5]: 11.94 ng/g
Drug Concentration in Tissue: optic nerve-right [4, 5]: 33.63 ng/g
Drug Concentration in Tissue: retina-left [4, 5]: 2.30 ng/g
Drug Concentration in Tissue: retina-right [4, 5]: 2.70 ng/g
Drug Concentration in Tissue: superior rectus muscle-left [4, 5]: 85.83 ng/g
Drug Concentration in Tissue: superior rectus muscle-right [4, 5]: 88.37 ng/g
Amount of JV-DE1 delivered to the brain (estimated) ([4]; 3 h, brain weight around 60 g, JV-DE1 158.45 μg periorbital): 80.6 ng
